# Assay results: patent US8933079B2, “Pyridone and pyridazinone derivatives as anti-obesity agents” (Boehringer Ingelheim International GmbH, priority 2012, dated 2015)
# Molecular target: hMCH-1R (Homo sapiens (Human), UniProt Q99705)
# Experiment: MCH-1 receptor binding test (125I-MCH binding to hMCH-1R transfected cell membranes)
# Settings: competition with 100 pM 125I-MCH, membranes of CHO/Galpha16 cells stably transfected with hMCH-1R
# Protocol: Res Commun. […] After the incubation the reaction is filtered using a cell harvester through 0.5% PEI treated fibreglass filters (GF/B, Unifilter Packard). The membrane-bound radioactivity retained on the filter is then determined after the addition of scintillator substance (Packard Microscint 20) in a measuring device (TopCount of Packard). […] The analysis of the concentration binding curve is carried out on the assumption of one receptor binding site.
# Chain of hMCH-1R (Q99705 whole entry): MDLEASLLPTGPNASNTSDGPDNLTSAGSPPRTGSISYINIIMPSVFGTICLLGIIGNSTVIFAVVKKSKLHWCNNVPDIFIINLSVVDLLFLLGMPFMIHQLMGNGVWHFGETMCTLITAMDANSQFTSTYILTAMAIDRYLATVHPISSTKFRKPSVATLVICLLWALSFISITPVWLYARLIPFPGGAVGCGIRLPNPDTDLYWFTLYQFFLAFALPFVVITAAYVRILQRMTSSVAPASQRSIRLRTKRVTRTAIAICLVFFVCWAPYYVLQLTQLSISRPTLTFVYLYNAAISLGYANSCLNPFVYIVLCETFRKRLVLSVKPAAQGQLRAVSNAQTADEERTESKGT
row,SMILES,IC50
1,"Cc1cc(CN2CCCC2)ccc1C(=O)Cn1ccc(OCc2ccc(Br)cn2)cc1=O [Example 4.8, 4-(5-Bromo-pyridin-2-ylmethoxy)-1-[2-(2-methyl-4-pyrrolidin-1-ylmethyl-phenyl)-2-oxo-ethyl]-1H-pyridin-2-one]",0.017 µM
2,"Cc1cc(CN2CC[C@@H](O)C2)ccc1C(=O)Cn1ccc(OCc2ccc(Br)cn2)cc1=O [Example 4.9, (R)-4-(5-Bromo-pyridin-2-ylmethoxy)-1-{2-[4-(3-hydroxy-pyrrolidin-1-ylmethyl)-2-methyl-phenyl]-2-oxo-ethyl}-1H-pyridin-2-one]",0.02 µM
3,CCN1CCN(Cc2ccc(C(=O)Cn3ccc(OCc4ccc(Br)cn4)cc3=O)c(C)c2)CC1 [Example 4.10],0.053 µM
4,Cc1cc(CN2CCOCC2)ccc1C(=O)Cn1ccc(OCc2ccc(Br)cn2)cc1=O [Example 4.11],0.059 µM
5,"Cc1cc(CN2CCC[C@@H](O)C2)ccc1C(=O)Cn1ccc(OCc2ccc(Br)cn2)cc1=O [Example 4.12, (R)-4-(5-Bromo-pyridin-2-ylmethoxy)-1-{2-[4-(3-hydroxy-piperidin-1-ylmethyl)-2-methyl-phenyl]-2-oxo-ethyl}-1H-pyridin-2-one]",0.023 µM
6,"CNCc1ccc(C(=O)Cn2ccc(OCc3ccc(Br)cn3)cc2=O)c(C)c1 [Example 4.13, 4-(5-Bromo-pyridin-2-ylmethoxy)-1-[2-(2-methyl-4-methylaminomethyl-phenyl)-2-oxo-ethyl]-1H-pyridin-2-one]",0.026 µM
7,Cc1cc(CN2CCN(C)CC2)ccc1C(=O)Cn1ccc(OCc2ccc(Br)cn2)cc1=O [Example 4.14],0.072 µM
8,"Cc1cc(CNC(C)C)ccc1C(=O)Cn1ccc(OCc2ccc(Br)cn2)cc1=O [Example 4.15, 4-(5-Bromo-pyridin-2-ylmethoxy)-1-{2-[4-(isopropylamino-methyl)-2-methyl-phenyl]-2-oxo-ethyl}-1H-pyridin-2-one]",0.018 µM
9,Cc1cc(CN2CCCCC2)ccc1C(=O)Cn1ccc(OCc2ccc(Br)cn2)cc1=O [Example 4.16],0.012 µM
10,"Cc1cc(CN(C)C(C)C)ccc1C(=O)Cn1ccc(OCc2ccc(Br)cn2)cc1=O [Example 4.17, 4-(5-Bromo-pyridin-2-ylmethoxy)-1-(2-{4-[(isopropyl-methyl-amino)-methyl]-2-methyl-phenyl}-2-oxo-ethyl)-1H-pyridin-2-one]",0.018 µM
11,"CCN(C)Cc1ccc(C(=O)Cn2ccc(OCc3ccc(Br)cn3)cc2=O)c(C)c1 [Example 4.18, 4-(5-Bromo-pyridin-2-ylmethoxy)-1-(2-{4-[(ethyl-methyl-amino)-methyl]-2-methyl-phenyl}-2-oxo-ethyl)-1H-pyridin-2-one]",0.019 µM
12,"CCN(CC)Cc1ccc(C(=O)Cn2ccc(OCc3ccc(Br)cn3)cc2=O)c(C)c1 [Example 4.20, 4-(5-Bromo-pyridin-2-ylmethoxy)-1-[2-(4-diethylaminomethyl-2-methyl-phenyl)-2-oxo-ethyl]-1H-pyridin-2-one]",0.019 µM
13,"Cc1cc(CN2CCC2)ccc1C(=O)Cn1ccc(OCc2ccc(Br)cn2)cc1=O [Example 4.21, 1-[2-(4-Azetidin-1-ylmethyl-2-methyl-phenyl)-2-oxo-ethyl]-4-(5-bromo-pyridin-2-ylmethoxy)-1H-pyridin-2-one]",0.018 µM
14,"Cc1cc(CN2CCC[C@@H](O)C2)ccc1C(=O)Cn1ncc(OCc2ccccc2)cc1=O [Example 5.1, (R)-5-Benzyloxy-2-{2-[4-(3-hydroxy-piperidin-1-ylmethyl)-2-methyl-phenyl]-2-oxo-ethyl}-2H-pyridazin-3-one]",0.014 µM
15,"Cc1cc(CN2CCC[C@H]2CO)ccc1C(=O)Cn1ncc(OCc2ccccc2)cc1=O [Example 5.3, (S)-5-Benzyloxy-2-{2-[4-(2-hydroxymethyl-pyrrolidin-1-ylmethyl)-2-methyl-phenyl]-2-oxo-ethyl}-2H-pyridazin-3-one]",0.011 µM
16,"Cc1cc(CN2CC[C@@H](O)C2)ccc1C(=O)Cn1ncc(OCc2ccccc2)cc1=O [Example 5.4, (R)-5-Benzyloxy-2-{2-[4-(3-hydroxy-pyrrolidin-1-ylmethyl)-2-methyl-phenyl]-2-oxo-ethyl}-2H-pyridazin-3-one]",0.012 µM
17,Cc1cc(CN2CC[C@H](O)C2)ccc1C(=O)Cn1ncc(OCc2ccccc2)cc1=O [Example 5.5],0.011 µM
18,"CCNCc1ccc(C(=O)Cn2ncc(OCc3ccccc3)cc2=O)c(C)c1 [Example 5.6, 5-Benzyloxy-2-[2-(4-ethylaminomethyl-2-methyl-phenyl)-2-oxo-ethyl]-2H-pyridazin-3-one]",0.01 µM
19,"Cc1cc(CN2CC(O)C2)ccc1C(=O)Cn1ncc(OCc2ccccc2)cc1=O [Example 5.7, 5-Benzyloxy-2-{2-[4-(3-hydroxy-azetidin-1-ylmethyl)-2-methyl-phenyl]-2-oxo-ethyl}-2H-pyridazin-3-one]",0.01 µM
20,Cc1cc(CN2CCC(O)CC2)ccc1C(=O)Cn1ncc(OCc2ccccc2)cc1=O [Example 5.8],0.015 µM
21,"Cc1cc(CN2CCOC(C)C2)ccc1C(=O)Cn1ncc(OCc2ccccc2)cc1=O (stereo not shown) [Example 5.9, 5-Benzyloxy-2-{2-[2-methyl-4-(2-methyl-morpholin-4-ylmethyl)-phenyl]-2-oxo-ethyl}-2H-pyridazin-3-one]",0.03 µM
22,"Cc1cc(CN2CCC(CO)CC2)ccc1C(=O)Cn1ncc(OCc2ccccc2)cc1=O [Example 5.11, 5-Benzyloxy-2-{2-[4-(4-hydroxymethyl-piperidin-1-ylmethyl)-2-methyl-phenyl]-2-oxo-ethyl}-2H-pyridazin-3-one]",0.013 µM

row,SMILES,IC50
1,"Cc1cc(CN2CCCC[C@@H]2CO)ccc1C(=O)Cn1ncc(OCc2ccccc2)cc1=O [Example 5.12, (R)-5-Benzyloxy-2-{2-[4-(2-hydroxymethyl-piperidin-1-ylmethyl)-2-methyl-phenyl]-2-oxo-ethyl}-2H-pyridazin-3-one]",0.013 µM
2,"Cc1cc(CN2CCC[C@H](O)C2)ccc1C(=O)Cn1ncc(OCc2ccccc2)cc1=O [Example 5.13, (S)-5-Benzyloxy-2-{2-[4-(3-hydroxy-piperidin-1-ylmethyl)-2-methyl-phenyl]-2-oxo-ethyl}-2H-pyridazin-3-one]",0.013 µM
3,"Cc1cc(CN2CCC(C)(O)C2)ccc1C(=O)Cn1ncc(OCc2ccccc2)cc1=O (stereo not shown) [Example 5.14, 5-Benzyloxy-2-{2-[4-(3-hydroxy-3-methyl-pyrrolidin-1-ylmethyl)-2-methyl-phenyl]-2-oxo-ethyl}-2H-pyridazin-3-one]",0.01 µM
4,"Cc1cc(CN2CCCC2)ccc1C(=O)Cn1ncc(OCc2ccc(F)cn2)cc1=O [Example 6.1, 5-(5-Fluoro-pyridin-2-ylmethoxy)-2-[2-(2-methyl-4-pyrrolidin-1-ylmethyl-phenyl)-2-oxo-ethyl]-2H-pyridazin-3-one]",0.038 µM
5,"Cc1cc(CN2CCCCC2)ccc1C(=O)Cn1ncc(OCc2ccc(F)cn2)cc1=O [Example 6.2, 5-(5-Fluoro-pyridin-2-ylmethoxy)-2-[2-(2-methyl-4-piperidin-1-ylmethyl-phenyl)-2-oxo-ethyl]-2H-pyridazin-3-one]",0.035 µM
6,CCNCc1ccc(C(=O)Cn2ncc(OCc3ccc(F)cn3)cc2=O)c(C)c1 [Example 6.3],0.059 µM
7,Cc1cc(CN2CCC(O)CC2)ccc1C(=O)Cn1ncc(OCc2ccc(F)cn2)cc1=O [Example 6.4],0.058 µM
8,Cc1cc(CN2CC[C@H](O)C2)ccc1C(=O)Cn1ncc(OCc2ccc(F)cn2)cc1=O [Example 6.6],0.049 µM
9,"Cc1cc(CN2CCC[C@H]2CO)ccc1C(=O)Cn1ncc(OCc2ccc(Cl)cn2)cc1=O [Example 7.1, (S)-5-(5-Chloro-pyridin-2-ylmethoxy)-2-{2-[4-(2-hydroxymethyl-pyrrolidin-1-ylmethyl)-2-methyl-phenyl]-2-oxo-ethyl}-2H-pyridazin-3-one]",0.026 µM
10,CCN1CCN(Cc2ccc(C(=O)Cn3ncc(OCc4ccc(Cl)cn4)cc3=O)c(C)c2)CC1 [Example 7.2],0.071 µM
11,Cc1cc(CN2CC(O)C2)ccc1C(=O)Cn1ncc(OCc2ccc(Cl)cn2)cc1=O [Example 7.3],0.027 µM
12,Cc1cc(CN2CCN(C)CC2)ccc1C(=O)Cn1ncc(OCc2ccc(Cl)cn2)cc1=O [Example 7.4],0.067 µM
13,Cc1cc(CN2CCCCC2)ccc1C(=O)Cn1ncc(OCc2ccc(Cl)cn2)cc1=O [Example 7.5],0.016 µM
14,"CNCc1ccc(C(=O)Cn2ncc(OCc3ccc(Cl)cn3)cc2=O)c(C)c1 [Example 7.6, 5-(5-Chloro-pyridin-2-ylmethoxy)-2-[2-(2-methyl-4-methylaminomethyl-phenyl)-2-oxo-ethyl]-2H-pyridazin-3-one]",0.028 µM
15,"CCNCc1ccc(C(=O)Cn2ncc(OCc3ccc(Cl)cn3)cc2=O)c(C)c1 [Example 7.7, 5-(5-Chloro-pyridin-2-ylmethoxy)-2-[2-(4-ethylaminomethyl-2-methyl-phenyl)-2-oxo-ethyl]-2H-pyridazin-3-one]",0.018 µM
16,Cc1cc(CN2CCC(CO)CC2)ccc1C(=O)Cn1ncc(OCc2ccc(Cl)cn2)cc1=O [Example 7.8],0.026 µM
17,Cc1cc(CN2CC[C@@H](O)C2)ccc1C(=O)Cn1ncc(OCc2ccc(Cl)cn2)cc1=O [Example 7.9],0.032 µM
18,Cc1cc(CN2CCC[C@H](O)C2)ccc1C(=O)Cn1ncc(OCc2ccc(Cl)cn2)cc1=O [Example 7.10],0.025 µM
19,Cc1cc(CN2CCC[C@@H](O)C2)ccc1C(=O)Cn1ncc(OCc2ccc(Cl)cn2)cc1=O [Example 7.11],0.031 µM
20,Cc1cc(CN2CC[C@H](O)C2)ccc1C(=O)Cn1ncc(OCc2ccc(Cl)cn2)cc1=O [Example 7.12],0.03 µM
21,"Cc1cc(CN2CCCC[C@@H]2CO)ccc1C(=O)Cn1ncc(OCc2ccc(Cl)cn2)cc1=O [Example 7.13, (R)-5-(5-Chloro-pyridin-2-ylmethoxy)-2-{2-[4-(2-hydroxymethyl-piperidin-1-ylmethyl)-2-methyl-phenyl]-2-oxo-ethyl}-2H-pyridazin-3-one]",0.035 µM
